One experiment deals with thrombin (Homo sapiens, UniProt P00734). Description: Chromogenic kinetic enzyme assay, thrombin. Format: biochemical.
In a further experiment the target is hepsin (Homo sapiens, UniProt P05981). The experiment in a line: Fluorogenic kinetic enzyme inhibitor assay, hepsin. It is filed as biochemical.
The next experiment has as its target T1, matriptase (Homo sapiens, UniProt Q9Y5Y6).
T1 sequence (Q9Y5Y6 615-855): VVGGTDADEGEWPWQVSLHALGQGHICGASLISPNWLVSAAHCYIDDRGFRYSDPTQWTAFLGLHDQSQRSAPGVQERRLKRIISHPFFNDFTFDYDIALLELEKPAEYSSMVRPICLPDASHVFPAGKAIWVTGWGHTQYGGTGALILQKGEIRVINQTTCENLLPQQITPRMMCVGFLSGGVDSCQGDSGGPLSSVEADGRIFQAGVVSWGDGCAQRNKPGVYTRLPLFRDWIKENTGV
The experiment in a line: Fluorogenic kinetic enzyme inhibitor assay, matriptase. Format: biochemical.

Another experiment has as its target TMPRSS2 (Homo sapiens, UniProt O15393, Q253D/R252D/R255K/S251D/S254D). Description: Fluorogenic kinetic enzyme inhibitor assay, TMPRSS2. It is filed as biochemical.
In experiment [1] the test system is chimeric VSV SARS-CoV-2 virus. As to conditions: for EC50: chimeric VSV virus.
The target in another experiment is T2, HGFA (Homo sapiens, UniProt Q04756).
T2 sequence (Q04756 373-655): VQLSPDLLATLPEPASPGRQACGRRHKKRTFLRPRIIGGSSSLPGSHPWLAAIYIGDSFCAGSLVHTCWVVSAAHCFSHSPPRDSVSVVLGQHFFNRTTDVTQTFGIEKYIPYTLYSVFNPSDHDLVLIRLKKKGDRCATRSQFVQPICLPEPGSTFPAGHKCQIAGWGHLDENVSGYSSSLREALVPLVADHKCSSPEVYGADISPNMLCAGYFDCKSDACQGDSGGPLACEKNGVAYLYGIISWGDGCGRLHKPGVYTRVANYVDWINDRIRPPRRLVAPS
Description: Fluorogenic kinetic enzyme inhibitor assay, HGFA. It is filed as biochemical.

The subject of experiment [2] is influenza A virus strain A/California/4/2009 (pdmH1N1). Conditions: for H1N1 titer Log fold reduction (1 μM): virus strain A/California/4/2009 (pdmH1N1, 72 h, 1 μM); for H1N1 titer Log fold reduction (10 μM): virus strain A/California/4/2009 (pdmH1N1, 72 h, 10 μM).

The values below come from doi:10.1101/2025.05.09.652710v1 (bioRxiv, 2025).

hepsin, sequence (P05981 163-417 limits assumed): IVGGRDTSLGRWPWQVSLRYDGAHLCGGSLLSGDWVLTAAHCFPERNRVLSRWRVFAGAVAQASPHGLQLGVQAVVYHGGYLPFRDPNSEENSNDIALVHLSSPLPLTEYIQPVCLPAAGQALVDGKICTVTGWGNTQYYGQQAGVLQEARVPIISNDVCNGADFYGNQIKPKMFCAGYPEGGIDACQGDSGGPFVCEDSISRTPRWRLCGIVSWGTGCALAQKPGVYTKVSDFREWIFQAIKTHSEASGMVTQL
hepsin, sequence (P05981 45-162 partner limits assumed): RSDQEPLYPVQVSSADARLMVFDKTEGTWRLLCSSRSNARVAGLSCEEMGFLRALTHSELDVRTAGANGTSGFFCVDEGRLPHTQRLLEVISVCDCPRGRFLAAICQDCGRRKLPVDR
TMPRSS2, sequence (O15393 109-492 S251D/R252D/Q253D/S254D/R255K limits assumed): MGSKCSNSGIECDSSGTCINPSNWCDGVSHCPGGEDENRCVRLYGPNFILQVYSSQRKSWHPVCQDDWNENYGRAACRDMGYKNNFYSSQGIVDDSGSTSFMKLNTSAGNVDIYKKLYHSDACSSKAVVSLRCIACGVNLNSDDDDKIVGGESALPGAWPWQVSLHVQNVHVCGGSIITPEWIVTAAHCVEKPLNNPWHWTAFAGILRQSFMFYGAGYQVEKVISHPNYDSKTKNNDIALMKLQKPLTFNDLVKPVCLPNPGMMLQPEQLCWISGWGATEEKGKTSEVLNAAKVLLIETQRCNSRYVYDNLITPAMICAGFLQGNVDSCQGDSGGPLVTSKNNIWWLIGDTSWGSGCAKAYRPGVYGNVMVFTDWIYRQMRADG

Usually IC50 stands for the midpoint of a concentration-inhibition curve. Lower therefore signals higher potency. A word on the EC50: it is the midpoint of the concentration-response curve. A low value points to an effect from little substance. On to `CC[C@H](C)[C@H](NC(C)=O)C(=O)N[C@@H](CCSC)C(=O)N[C@@H](Cc1ccccc1)C(=O)N[C@@H](CCCNC(=N)N)C(=O)c1nc2ccccc2s1` [MM4027, Ac-IMFR-kbt], for which the IC50 was greater than 20000 nM at thrombin, 1.3 nM against hepsin, 0.51 nM against matriptase and 3 nM against TMPRSS2. The response in experiment [1] was half-maximal at 92 nM (EC50).

Turning to `CC[C@H](C)[C@H](NC(C)=O)C(=O)N[C@@H](CCC(=O)O)C(=O)N[C@@H](Cc1ccccc1)C(=O)N[C@H](CCCNC(=N)N)C(=O)c1nc2ccccc2s1` [MM4037-1, Ac-IEFdR-kbt], the IC50 against thrombin is greater than 20000 nM; on HGFA, greater than 20000 nM; against TMPRSS2 it was 0.38 nM.

Regarding `CC[C@H](C)[C@H](NC(C)=O)C(=O)N[C@@H](CCC(=O)O)C(=O)N[C@@H](Cc1ccccc1)C(=O)N[C@@H](CCCNC(=N)N)C(=O)c1nc2ccccc2s1` [MM4037, Ac-IEFR-kbt], the IC50 was greater than 20000 nM on thrombin; 276 nM at HGFA; 0.35 nM at hepsin; 2.4 nM against matriptase; 0.11 nM against TMPRSS2. The compound further showed an EC50 in experiment [1] of 24 nM.

With `N=C(N)NCCC[C@H](NC(=O)[C@H](Cc1ccccc1)NC(=O)[C@H](CCC(N)=O)NS(=O)(=O)C1CC1)C(=O)c1nc2ccccc2s1` [MF1104, CypSO2-QFR-kbt], the IC50 against HGFA stood at 4.2 nM. The IC50 against TMPRSS2 was 0.27 nM. Also, in experiment [2], the “H1N1 Fold inhibition @ 0.001 μM” value is reported as 1, the “H1N1 Fold inhibition @ 0.01 μM” value is reported as 2, the “H1N1 Fold inhibition @ 0.1 μM” value is listed as 1 and the “H1N1 Fold inhibition @ 1 μM” value stood at 617. Moreover, in experiment [2], the “H1N1 Fold inhibition @ 10 μM” value is 916, the “H1N1 titer Log fold reduction (1 μM)” value turned out to be 2.9 and the “H1N1 titer Log fold reduction (10 μM)” value was 3.0.

On to `CC(=O)N[C@@H](CC(C)C)C(=O)N[C@@H](CCC(N)=O)C(=O)N[C@@H](Cc1ccccc1)C(=O)N[C@@H](CCCNC(=N)N)C(=O)c1nc2ccccc2s1` [MM3131, Ac-LQFR-kbt], for which the IC50 against TMPRSS2 came to 0.03 nM. In experiment [1], the EC50 stood at 11 nM.

The compound `N=C(N)NCCC[C@H](NC(=O)[C@H](Cc1ccccc1)NC(=O)[C@H](CCC(N)=O)NC(=O)Cc1ccccc1)C(=O)c1nc2ccccc2s1` [CA1018, PhAc-QFR-kbt] came in with an IC50 against TMPRSS2 of 0.41 nM.

Regarding `N=C(N)NCCC[C@H](NC(=O)[C@H](Cc1ccccc1)NC(=O)[C@H](CCC(N)=O)NC(=O)c1ccccc1)C(=O)c1nc2ccccc2s1` [CA1043, Bz-QFR-kbt], the IC50 at TMPRSS2 is 0.08 nM. Moreover, in experiment [2], the “H1N1 Fold inhibition @ 0.001 μM” value is given as 1, the “H1N1 Fold inhibition @ 0.01 μM” value is on record as 1, the “H1N1 Fold inhibition @ 0.1 μM” value was found to be 5 and the “H1N1 Fold inhibition @ 1 μM” value is recorded as 968. Besides, in experiment [2], the “H1N1 Fold inhibition @ 10 μM” value came out at 774, the “H1N1 titer Log fold reduction (1 μM)” value was 3.1 and the “H1N1 titer Log fold reduction (10 μM)” value is 3.0.

For `CN(C)[C@@H](CCC(N)=O)C(=O)N[C@@H](Cc1ccccc1)C(=O)N[C@@H](CCCNC(=N)N)C(=O)c1nc2ccccc2s1` [CA1041, Dimethyl-QFR-kbt], half-maximal inhibition against TMPRSS2 (IC50) was put at 0.86 nM.

Consider `N=C(N)NCCC[C@H](NC(=O)[C@H](Cc1ccccc1)NC(=O)[C@H](CCC(N)=O)NCCc1ccccc1)C(=O)c1nc2ccccc2s1` [CA1033, PhCH2CH2-QFR-kbt], for which the IC50 at TMPRSS2 was found to be 0.32 nM.

Consider `CC[C@H](C)[C@H](NC(C)=O)C(=O)N[C@H](C(=O)N[C@@H](Cc1ccccc1)C(=O)N[C@H](CCCNC(=N)N)C(=O)c1nc2ccccc2s1)[C@@H](C)O` [MM4028-1, Ac-ITFdR-kbt], for which the IC50 at thrombin was greater than 20000 nM; on HGFA, 1120 nM; against TMPRSS2, 1.42 nM.

Take `N=C(N)NCCC[C@H](NC(=O)[C@H](Cc1ccccc1)NC(=O)[C@H](CCC(N)=O)NCc1ccccc1)C(=O)c1nc2ccccc2s1` [CA1022, Bn-QFR-kbt]: the IC50 on TMPRSS2 came out at 0.99 nM.

`N=C(N)NCCC[C@H](NC(=O)[C@H](Cc1ccccc1)NC(=O)[C@H](CCC(N)=O)NC(=O)OCc1ccccc1)C(=O)c1nc2ccccc2s1` [ZFH9141, Cbz-QFR-kbt] gave an IC50 against HGFA of 85 nM. This compound showed an IC50 at TMPRSS2 of 0.42 nM. For the same compound, in experiment [2], the “H1N1 Fold inhibition @ 0.001 μM” value came out at 2, the “H1N1 Fold inhibition @ 0.01 μM” value is 6, the “H1N1 Fold inhibition @ 0.1 μM” value came out at 483 and the “H1N1 Fold inhibition @ 1 μM” value is recorded as 578. Also, in experiment [2], the “H1N1 Fold inhibition @ 10 μM” value is 578, the “H1N1 titer Log fold reduction (1 μM)” value was 2.8 and the “H1N1 titer Log fold reduction (10 μM)” value turned out to be 2.8.

On HGFA, `CS(=O)(=O)N[C@@H](CCC(N)=O)C(=O)N[C@@H](Cc1ccccc1)C(=O)N[C@@H](CCCNC(=N)N)C(=O)c1nc2ccccc2s1` [MF1099, MeSO2-QFR-kbt, reference compound] yielded an IC50 of 341 nM.

In the case of `N=C(N)NCCC[C@H](NC(=O)[C@H](Cc1ccccc1)NC(=O)[C@H](CCC(N)=O)N1CCCCC1)C(=O)c1nc2ccccc2s1` [CA1046, Pip-QFR-kbt], the IC50 against TMPRSS2 was determined as 8.2 nM.

For the compound `CC[C@H](C)[C@H](NC(C)=O)C(=O)N[C@@H](CCSC)C(=O)N[C@@H](Cc1ccccc1)C(=O)N[C@H](CCCNC(=N)N)C(=O)c1nc2ccccc2s1` [MM4027-1, Ac-IMFdR-kbt], the IC50 at thrombin was greater than 20000 nM; on HGFA, 234 nM; against hepsin, 3.16 nM; at matriptase, 16.1 nM; against TMPRSS2 it was 5.63 nM.

`CC(=O)N1CCC[C@H]1C(=O)N[C@@H](CO)C(=O)N[C@@H](CCCCN)C(=O)N[C@@H](CCCNC(=N)N)C(=O)c1nc2ccccc2s1` [MM3194, Ac-PSKR-kbt] gave an IC50 on thrombin greater than 20000 nM. Besides, the IC50 against TMPRSS2 was 0.29 nM. Besides, in experiment [1], the EC50 came out at 613 nM. For the same compound, in experiment [2], the “H1N1 Fold inhibition @ 0.1 μM” value is 1, the “H1N1 Fold inhibition @ 1 μM” value was 1, the “H1N1 Fold inhibition @ 10 μM” value is listed as 4 and the “H1N1 titer Log fold reduction (1 μM)” value was determined as 0. Also, in experiment [2], the “H1N1 titer Log fold reduction (10 μM)” value worked out at 0.60.

In turn, `CC(=O)N[C@@H](Cc1c[nH]c2ccccc12)C(=O)N[C@@H](CC(C)C)C(=O)N[C@@H](Cc1ccccc1)C(=O)N[C@@H](CCCNC(=N)N)C(=O)c1nc2ccccc2s1` [ZFH7064, Ac-WLFR-kbt] yielded an IC50 on TMPRSS2 of 0.09 nM.

`N=C(N)NCCC[C@H](NC(=O)[C@H](Cc1ccccc1)NC(=O)[C@H](CCC(N)=O)NS(=O)(=O)c1ccccc1)C(=O)c1nc2ccccc2s1` [MF1101, PhSO2-QFR-kbt] had an IC50 at HGFA of 17 nM. This compound registered an IC50 against TMPRSS2 of 1 nM. Moreover, in experiment [2], the “H1N1 Fold inhibition @ 0.001 μM” value is reported as 1, the “H1N1 Fold inhibition @ 0.01 μM” value is 1, the “H1N1 Fold inhibition @ 0.1 μM” value came to 4 and the “H1N1 Fold inhibition @ 1 μM” value is 1014. Moreover, in experiment [2], the “H1N1 Fold inhibition @ 10 μM” value is recorded as 1321, the “H1N1 titer Log fold reduction (1 μM)” value came out at 2.9 and the “H1N1 titer Log fold reduction (10 μM)” value came to 3.3.

Consider `N=C(N)NCCC[C@H](NC(=O)[C@H](Cc1ccccc1)NC(=O)[C@H](CCC(N)=O)NS(=O)(=O)Cc1ccccc1)C(=O)c1nc2ccccc2s1` [MF1105, BnSO2-QFR-kbt], for which the values for the IC50 at thrombin, against HGFA and against TMPRSS2 were greater than 20000 nM, 6.5 nM and 0.07 nM, respectively.

In the case of `CC(=O)NCC(=O)N[C@@H](CCC(N)=O)C(=O)N[C@@H](Cc1ccccc1)C(=O)N[C@@H](CCCNC(=N)N)C(=O)c1nc2ccccc2s1` [MM3122, Ac-GQFR-kbt], on TMPRSS2, the IC50 came to 0.03 nM. In experiment [1], the “VSV SARS-CoV-2 Chimera EC50” value is “below nM” and the concentration giving a half-maximal response (EC50) worked out at 0.43 nM. In experiment [2], the “H1N1 Fold inhibition @ 0.001 μM” value came to 2.1, the “H1N1 Fold inhibition @ 0.01 μM” value worked out at 4.2, the “H1N1 Fold inhibition @ 0.1 μM” value is 27.5 and the “H1N1 Fold inhibition @ 1 μM” value is given as 2216. Further, in experiment [2], the “H1N1 Fold inhibition @ 10 μM” value was 2952, the “H1N1 titer Log fold reduction (1 μM)” value stood at 3.4 and the “H1N1 titer Log fold reduction (10 μM)” value amounted to 4.3.

On to `CC(=O)N1CCC[C@H]1C(=O)N[C@@H](CCC(N)=O)C(=O)N[C@@H](Cc1ccccc1)C(=O)N[C@@H](CCCNC(=N)N)C(=O)c1nc2ccccc2s1` [MM3123, Ac-PQFR-kbt], for which 0.06 nM corresponded to half-maximal inhibition against TMPRSS2 (IC50). In addition, in experiment [1], the “VSV SARS-CoV-2 Chimera EC50” value is given as “below nM” and the EC50 amounted to 0.86 nM. In experiment [2], the “H1N1 titer Log fold reduction (1 μM)” value was 1.3 and the “H1N1 titer Log fold reduction (10 μM)” value worked out at 2.6.

`CSCC[C@H](NC(C)=O)C(=O)N[C@@H](CCC(N)=O)C(=O)N[C@@H](Cc1ccccc1)C(=O)N[C@@H](CCCNC(=N)N)C(=O)c1nc2ccccc2s1` [MM3130, Ac-MQFR-kbt] registered an IC50 at TMPRSS2 of 0.14 nM. Besides, the EC50 in experiment [1] was found to be 48 nM. Also, in experiment [2], the “H1N1 Fold inhibition @ 0.1 μM” value is recorded as 1, the “H1N1 Fold inhibition @ 1 μM” value is listed as 27, the “H1N1 Fold inhibition @ 10 μM” value is reported as 510 and the “H1N1 titer Log fold reduction (1 μM)” value amounted to 1.4. For the same compound, in experiment [2], the “H1N1 titer Log fold reduction (10 μM)” value was 2.7.
